Experimental data as given in patent US11414404B2, “Compounds for the treatment of BRAF-associated diseases and disorders” (Array BioPharma Inc., priority 2019, dated 2022).
Counter-ions that a name gives are not always drawn. Like-named read-outs stand apart in the source and are kept apart here.

What was measured:
[1] = molecular target: full-length FLAG-tagged B-Raf(V600E) (Homo sapiens (Human), UniProt P15056, V600E); experiment: BRAF V600E enzyme assay (TR-FRET competitive displacement of fluorescent tracer); type: binding
full-length FLAG-tagged B-Raf(V600E), sequence (P15056 whole entry V600E): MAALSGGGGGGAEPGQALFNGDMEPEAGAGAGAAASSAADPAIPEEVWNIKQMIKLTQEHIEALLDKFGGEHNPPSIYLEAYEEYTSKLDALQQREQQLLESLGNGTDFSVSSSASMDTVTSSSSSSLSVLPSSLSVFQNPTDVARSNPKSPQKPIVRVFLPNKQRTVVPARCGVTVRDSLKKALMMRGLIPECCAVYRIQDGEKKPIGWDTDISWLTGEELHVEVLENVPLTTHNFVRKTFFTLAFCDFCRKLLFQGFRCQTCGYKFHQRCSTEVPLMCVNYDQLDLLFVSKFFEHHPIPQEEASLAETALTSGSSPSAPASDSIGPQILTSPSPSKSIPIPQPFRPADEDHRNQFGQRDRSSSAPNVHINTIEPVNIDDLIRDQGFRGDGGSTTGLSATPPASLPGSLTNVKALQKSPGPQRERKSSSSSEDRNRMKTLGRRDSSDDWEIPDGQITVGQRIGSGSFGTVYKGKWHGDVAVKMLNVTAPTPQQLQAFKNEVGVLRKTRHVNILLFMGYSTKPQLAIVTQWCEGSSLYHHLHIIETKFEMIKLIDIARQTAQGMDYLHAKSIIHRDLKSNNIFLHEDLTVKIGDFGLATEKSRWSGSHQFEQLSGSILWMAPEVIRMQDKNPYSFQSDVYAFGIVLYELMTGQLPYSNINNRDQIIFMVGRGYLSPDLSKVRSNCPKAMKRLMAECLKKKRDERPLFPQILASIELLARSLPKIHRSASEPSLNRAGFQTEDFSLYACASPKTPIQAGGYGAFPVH
Source text: A competitive displacement assay was configured for B-Raf that monitors the amount of a fluorescently-tagged “tracer” bound to B-Raf via TR-FRET from an anti-tag Eu-labeled antibody also bound to B-Raf.
[formula] • where: • Xmax Average Uninhibited Controls • Xmin Average Background
A 4-parameter logistic model was the fit to the POC data for each compound.

[2] = molecular target: BCRP (Homo sapiens (Human), UniProt Q9UNQ0); experiment: BCRP MDCKII permeability assay: efflux ratio; details: dog
BCRP, sequence (Q9UNQ0 whole entry, species assumed): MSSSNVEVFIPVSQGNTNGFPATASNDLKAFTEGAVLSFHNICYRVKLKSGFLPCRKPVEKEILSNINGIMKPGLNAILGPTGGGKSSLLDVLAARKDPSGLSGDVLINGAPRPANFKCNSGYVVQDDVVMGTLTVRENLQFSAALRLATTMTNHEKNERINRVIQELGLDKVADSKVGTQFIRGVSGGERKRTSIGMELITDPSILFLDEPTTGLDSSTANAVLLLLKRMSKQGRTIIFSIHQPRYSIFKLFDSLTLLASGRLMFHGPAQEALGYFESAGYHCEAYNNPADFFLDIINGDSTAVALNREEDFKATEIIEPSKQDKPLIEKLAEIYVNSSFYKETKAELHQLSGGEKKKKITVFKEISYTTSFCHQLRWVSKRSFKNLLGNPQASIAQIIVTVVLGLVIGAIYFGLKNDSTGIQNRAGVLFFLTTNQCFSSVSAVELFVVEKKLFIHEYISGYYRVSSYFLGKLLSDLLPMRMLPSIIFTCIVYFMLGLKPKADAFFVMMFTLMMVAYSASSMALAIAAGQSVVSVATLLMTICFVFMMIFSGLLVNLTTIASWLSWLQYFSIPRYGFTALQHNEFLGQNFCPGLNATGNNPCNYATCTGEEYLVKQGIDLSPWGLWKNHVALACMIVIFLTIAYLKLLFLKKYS

[3] = molecular target: P-gp (MDR1) (Homo sapiens (Human), UniProt P08183); experiment: MDR1 LLC-PK1 permeability assay: efflux ratio; details: pig, LLC-PK1
P-gp (MDR1), sequence (P08183 whole entry, species assumed): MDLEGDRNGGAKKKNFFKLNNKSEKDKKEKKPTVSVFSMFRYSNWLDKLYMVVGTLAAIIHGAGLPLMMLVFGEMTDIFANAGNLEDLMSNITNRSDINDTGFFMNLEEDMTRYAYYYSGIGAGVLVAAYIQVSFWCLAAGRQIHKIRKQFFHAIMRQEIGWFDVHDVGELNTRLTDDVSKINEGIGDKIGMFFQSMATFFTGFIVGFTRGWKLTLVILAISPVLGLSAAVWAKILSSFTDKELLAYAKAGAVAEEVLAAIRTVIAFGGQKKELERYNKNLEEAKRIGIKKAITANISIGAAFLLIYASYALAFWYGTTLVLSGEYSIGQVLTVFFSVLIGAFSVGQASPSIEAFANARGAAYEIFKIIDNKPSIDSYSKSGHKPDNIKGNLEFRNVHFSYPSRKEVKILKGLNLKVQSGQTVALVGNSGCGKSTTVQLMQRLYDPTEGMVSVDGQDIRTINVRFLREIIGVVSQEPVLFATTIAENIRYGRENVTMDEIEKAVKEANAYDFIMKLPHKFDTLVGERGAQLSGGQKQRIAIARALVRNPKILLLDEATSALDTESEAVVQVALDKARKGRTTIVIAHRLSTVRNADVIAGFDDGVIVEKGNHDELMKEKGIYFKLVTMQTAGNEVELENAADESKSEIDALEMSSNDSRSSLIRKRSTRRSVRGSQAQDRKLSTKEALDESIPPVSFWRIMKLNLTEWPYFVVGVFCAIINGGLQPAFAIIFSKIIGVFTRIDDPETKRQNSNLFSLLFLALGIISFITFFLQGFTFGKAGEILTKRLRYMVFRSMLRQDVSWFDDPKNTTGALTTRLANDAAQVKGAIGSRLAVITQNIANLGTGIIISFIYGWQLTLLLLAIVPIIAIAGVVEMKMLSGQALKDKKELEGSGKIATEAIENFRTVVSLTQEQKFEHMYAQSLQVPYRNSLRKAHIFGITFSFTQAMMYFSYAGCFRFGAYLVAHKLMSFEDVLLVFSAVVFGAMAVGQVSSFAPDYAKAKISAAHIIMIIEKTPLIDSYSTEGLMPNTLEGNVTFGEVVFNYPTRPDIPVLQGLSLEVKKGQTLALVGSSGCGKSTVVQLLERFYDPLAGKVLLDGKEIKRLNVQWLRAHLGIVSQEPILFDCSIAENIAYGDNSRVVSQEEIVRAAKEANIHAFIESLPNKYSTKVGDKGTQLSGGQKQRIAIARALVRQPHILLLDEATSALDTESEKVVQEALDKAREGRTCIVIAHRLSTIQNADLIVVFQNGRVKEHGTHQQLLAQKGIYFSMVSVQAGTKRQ
Experimental: (§1) Both LLC-PK1 and MDR1 transfected LLC-PK1 cells were cultured and plated according to manufacturer's recommendations with the exception that the passage media contained only 2% fetal bovine serum to extend passage time out to seven days.
(§2) Both positive and negative controls were used to assess functionality of P-gp or BCRP efflux in the assays. […] Final organic concentration in the assay was 1%. All dosing solutions contained 10 μM lucifer yellow to monitor LLC-PK1 or MDCKII cell monolayer integrity.
(§3) For the apical to basolateral determination (A to B), 75 μL of the test article in transport buffer were added to the apical side of the individual transwells and 250 μL of basolateral media, without compound or lucifer yellow, were added to each well. For the basolateral to apical determination (B to A), 250 μL of test article in transport buffer were added to each well and 75 μL transport buffer, without compound or lucifer yellow, were added to each transwell. All tests were performed in triplicate, and each compound was tested for both apical to basolateral and basolateral to apical transport. The plates were incubated for 2 hours on a Lab-Line Instruments Titer Orbital Shaker (VWR, West Chester, Pa.) at 50 rpm and 37° C. with 5% CO2. All culture plates were removed from the incubator and 50 μL of media were removed from the apical and basolateral portion of each well and added to 150 μL of 1 μM labetalol in 2:1 acetonitrile (acetonitrile): H2O, v/v.
(§4) These values were accepted when found to be below 2% for apical to basolateral and 5% basolateral to apical flux across the MDR1-transfected LLC-PK1 or BCRP-transfected MDCKII cell monolayers. The plates were sealed and the contents of each well analyzed by LC-MS/MS. The compound concentrations were determined from the ratio of the peak areas of the compound to the internal standard (labetalol) in comparison to the dosing solution.
(§5) The LC-MS/MS system was comprised of an HTS-PAL autosampler (Leap Technologies, Carrboro, N.C.), an HP1200 HPLC (Agilent, Palo Alto, Calif.), and a MDS Sciex 4000 Q Trap system (Applied Biosystems, Foster City, Calif.). […] The total run time, including re-equilibration, for a single injection was 1.2 minutes. Mass spectrometric detection of the analytes was accomplished using the ion spray positive mode.
An efflux ratio is calculated from the mean apical to basolateral (A−B) Papp data and basolateral to apical (B−A) Papp data: Efflux ratio=Papp(B−A)/Papp(A−B)

[4] = MDR1 LLC-PK1 and BCRP MDCKII permeability assay: permeability coefficient (Papp)
Experimental: as §1
BCRP transfected MDCKII cells were cultured and plated according to manufacturer's recommendations. Assay conditions included with and without the BCRP-specific inhibitor, K0143, at a concentration of 0.3 μM to ascertain the contribution of BCRP to the efflux value of the test compound.
as §2, §3, §4, §5
where Cd, V, t and C0 are the detected concentration (μM), the volume on the dosing side (mL); the incubation time (s) and the initial dosing concentration (μM), respectively. The calculations for Papp were made for each replicate and then averaged.

[5] = averaged IC50, 60 min at ambient temperature, 11-point dosing, top dose 10 μM

SMILES | IC50 [1, 5] | efflux ratio at 2 h, 1 µM [2] | efflux ratio at 2 h, 1 µM [3] | Papp at 2 h, 1 µM [4] | IC50 [1]
Cc1c(Nc2c(F)ccc(NS(=O)(=O)CCCF)c2F)ccc2ncn(C)c(=O)c12 [Example 2, N-(3-((3,5-dimethyl-4-oxo-3,4-dihydroquinazolin-6-yl)amino)-2,4-difluorophenyl)-3-fluoropropane-1-sulfonamide] | 14.2 nM | 18.6 | 3.92 | 30.1 ×10⁻⁶ cm/s | 
CCCS(=O)(=O)Nc1cccc(Nc2ccc3ncn(C)c(=O)c3c2C)c1Cl [Example 3, N-(2-chloro-3-((3,5-dimethyl-4-oxo-3,4-dihydroquinazolin-6-yl)amino)phenyl)propane-1-sulfonamide] | 70.5 nM | 0.87 | 1.37 | 25.8 ×10⁻⁶ cm/s | 
Cc1c(Nc2c(F)ccc(NS(=O)(=O)CCCF)c2Cl)ccc2ncn(C)c(=O)c12 [Example 10, N-(2-chloro-3-((3,5-dimethyl-4-oxo-3,4-dihydroquinazolin-6-yl)amino)-4-fluorophenyl)-3-fluoropropane-1-sulfonamide] |  |  |  | 41 ×10⁻⁶ cm/s | 
CCCS(=O)(=O)Nc1cc(F)cc(Nc2ccc3ncn(C)c(=O)c3c2C)c1F [Example 11, N-(3-((3,5-dimethyl-4-oxo-3,4-dihydroquinazolin-6-yl)amino)-2,5-difluorophenyl)propane-1-sulfonamide] | 16.1 nM | 2.35 | 1.65 | 28.6 ×10⁻⁶ cm/s | 
CCCS(=O)(=O)Nc1ccc(Cl)c(Nc2ccc3ncn(C)c(=O)c3c2C)c1Cl [Example 14, N-(2,4-dichloro-3-((3,5-dimethyl-4-oxo-3,4-dihydroquinazolin-6-yl)amino)phenyl)propane-1-sulfonamide] | 13.9 nM | 1.08 | 1.38 | 26.5 ×10⁻⁶ cm/s | 
CCCS(=O)(=O)Nc1ncc(F)c(Nc2ccc3ncn(C)c(=O)c3c2C)c1F [Example 16, N-(4-((3,5-dimethyl-4-oxo-3,4-dihydroquinazolin-6-yl)amino)-3,5-difluoropyridin-2-yl)propane-1-sulfonamide] | 17 nM | 20.3 | 4.76 | 21.3 ×10⁻⁶ cm/s | 
Cc1c(Nc2c(F)ccc(NS(=O)(=O)N3CCCC3)c2Cl)ccc2ncn(C)c(=O)c12 [Example 21, N-(2-chloro-3-((3,5-dimethyl-4-oxo-3,4-dihydroquinazolin-6-yl)amino)-4-fluorophenyl)pyrrolidine-1-sulfonamide] | 34.7 nM | 0.77 | 1.22 | 19.2 ×10⁻⁶ cm/s | 
[2H]C([2H])([2H])n1cnc2ccc(Nc3c(F)ccc(NS(=O)(=O)CCCF)c3Cl)c(C)c2c1=O [Example 23, N-(2-chloro-4-fluoro-3-((5-methyl-3-(methyl-d3)-4-oxo-3,4-dihydroquinazolin-6-yl)amino)-phenyl)-3-fluoropropane-1-sulfonamide] |  |  |  | 39.5 ×10⁻⁶ cm/s | 
[2H]C([2H])([2H])n1cnc2ccc(Nc3c(F)ccc(NS(=O)(=O)CCC)c3Cl)c(C)c2c1=O [Example 24, N-(2-chloro-4-fluoro-3-((5-methyl-3-(methyl-d3)-4-oxo-3,4-dihydroquinazolin-6-yl)amino)phenyl)propane-1-sulfonamide] |  | 1.18 | 1.59 | 25.6 ×10⁻⁶ cm/s | 9.05 nM
Cc1c(Nc2c(F)ccc(NS(=O)(=O)c3ccccn3)c2Cl)ccc2ncn(C)c(=O)c12 [Example 26, N-(2-chloro-3-((3,5-dimethyl-4-oxo-3,4-dihydroquinazolin-6-yl)amino)-4-fluorophenyl)pyridine-2-sulfonamide] | 49.2 nM | 6.46 | 2.04 | 30.2 ×10⁻⁶ cm/s | 
CCCS(=O)(=O)Nc1ccc(F)c(Nc2ccc3ncn(C(C)C)c(=O)c3c2C)c1Cl [Example 36, N-(2-chloro-4-fluoro-3-((3-isopropyl-5-methyl-4-oxo-3,4-dihydroquinazolin-6-yl)amino)phenyl)propane-1-sulfonamide trifluoroacetate] | 26.4 nM | 1.22 | 1.17 |  | 
CCCS(=O)(=O)Nc1nccc(Oc2ccc3ncn(C)c(=O)c3c2C)c1Cl [Example 57, N-(3-chloro-4-((3,5-dimethyl-4-oxo-3,4-dihydroquinazolin-6-yl)oxy)pyridin-2-yl)propane-1-sulfonamide] | 96 nM | 2.08 | 0.91 |  | 

Other lines, results leading:

IC50 [1, 5] | efflux ratio at 2 h, 1 µM [2] | efflux ratio at 2 h, 1 µM [3] | Papp at 2 h, 1 µM [4] | IC50 [1] | SMILES
6.25 nM | 8.33 | 2.24 | 26.7 ×10⁻⁶ cm/s |  | CCCS(=O)(=O)Nc1cc(F)c(F)c(Nc2ccc3ncn(C)c(=O)c3c2C)c1F [Example 5, N-(3-((3,5-dimethyl-4-oxo-3,4-dihydroquinazolin-6-yl)amino)-2,4,5-trifluorophenyl)propane-1-sulfonamide]
1.75 nM | 25.2 | 4.68 | 22.2 ×10⁻⁶ cm/s |  | Cc1c(Nc2c(F)c(F)cc(NS(=O)(=O)CCCF)c2F)ccc2ncn(C)c(=O)c12 [Example 6, N-(3-((3,5-dimethyl-4-oxo-3,4-dihydroquinazolin-6-yl)amino)-2,4,5-trifluorophenyl)-3-fluoropropane-1-sulfonamide]
1.45 nM | 11.2 | 1.61 | 27.5 ×10⁻⁶ cm/s |  | Cc1c(Nc2c(F)c(F)cc(NS(=O)(=O)CCCF)c2Cl)ccc2ncn(C)c(=O)c12 [Example 8, N-(2-chloro-3-((3,5-dimethyl-4-oxo-3,4-dihydroquinazolin-6-yl)amino)-4,5-difluorophenyl)-3-fluoropropane-1-sulfonamide]
9.75 nM | 1.13 | 0.93 | 27 ×10⁻⁶ cm/s |  | CCCS(=O)(=O)Nc1cc(F)cc(Nc2ccc3ncn(C)c(=O)c3c2C)c1Cl [Example 12, N-(2-chloro-3-((3,5-dimethyl-4-oxo-3,4-dihydroquinazolin-6-yl)amino)-5-fluorophenyl)propane-1-sulfonamide]
4.6 nM | 1.51 | 1.35 | 24.3 ×10⁻⁶ cm/s |  | CCCS(=O)(=O)Nc1cc(Cl)cc(Nc2ccc3ncn(C)c(=O)c3c2C)c1F [Example 13, N-(5-chloro-3-((3,5-dimethyl-4-oxo-3,4-dihydroquinazolin-6-yl)amino)-2-fluorophenyl)propane-1-sulfonamide]
4.55 nM | 4.5 | 1.87 | 24.1 ×10⁻⁶ cm/s |  | CCCS(=O)(=O)Nc1ncc(Cl)c(Nc2ccc3ncn(C)c(=O)c3c2C)c1Cl [Example 15, N-(3,5-dichloro-4-((3,5-dimethyl-4-oxo-3,4-dihydroquinazolin-6-yl)amino)pyridin-2-yl)propane-1-sulfonamide]
9.7 nM | 25.3 | 5.07 | 6.65 ×10⁻⁶ cm/s |  | Cc1c(Nc2c(F)cnc(NS(=O)(=O)CCCF)c2F)ccc2ncn(C)c(=O)c12 [Example 17, N-(4-((3,5-dimethyl-4-oxo-3,4-dihydroquinazolin-6-yl)amino)-3,5-difluoropyridin-2-yl)-3-fluoropropane-1-sulfonamide]
7.85 nM | 10.4 | 1.52 | 27.9 ×10⁻⁶ cm/s |  | CCCS(=O)(=O)Nc1ncc(F)c(Nc2ccc3ncn(C)c(=O)c3c2C)c1Cl [Example 18, N-(3-chloro-4-((3,5-dimethyl-4-oxo-3,4-dihydroquinazolin-6-yl)amino)-5-fluoropyridin-2-yl)propane-1-sulfonamide]
6.2 nM | 21.1 | 3.24 | 15.9 ×10⁻⁶ cm/s |  | Cc1c(Nc2c(F)cnc(NS(=O)(=O)CCCF)c2Cl)ccc2ncn(C)c(=O)c12 [Example 19, N-(3-chloro-4-((3,5-dimethyl-4-oxo-3,4-dihydroquinazolin-6-yl)amino)-5-fluoropyridin-2-yl)-3-fluoropropane-1-sulfonamide]
0.7 nM | 7.43 | 1.86 | 32.9 ×10⁻⁶ cm/s |  | Cc1c(Nc2c(F)ccc(NS(=O)(=O)c3ccco3)c2Cl)ccc2ncn(C)c(=O)c12 [Example 20, N-(2-chloro-3-((3,5-dimethyl-4-oxo-3,4-dihydroquinazolin-6-yl)amino)-4-fluorophenyl)furan-2-sulfonamide]
13.7 nM | 1.49 | 1.63 | 34.3 ×10⁻⁶ cm/s |  | Cc1c(Nc2c(F)ccc(NS(=O)(=O)N3CC[C@@H](F)C3)c2Cl)ccc2ncn(C)c(=O)c12 [Example 22, (R)—N-(2-chloro-3-((3,5-dimethyl-4-oxo-3,4-dihydroquinazolin-6-yl)amino)-4-fluorophenyl)-3-fluoropyrrolidine-1-sulfonamide]
0.34 nM | 1.8 | 1.82 | 22.1 ×10⁻⁶ cm/s |  | Cc1c(Nc2c(F)ccc(NS(=O)(=O)c3cc(F)ccc3F)c2Cl)ccc2ncn(C)c(=O)c12 [Example 25, N-(2-chloro-3-((3,5-dimethyl-4-oxo-3,4-dihydroquinazolin-6-yl)amino)-4-fluorophenyl)-2,5-difluorobenzenesulfonamide]
12.9 nM | 3.14 | 2.81 |  |  | Cc1c(Oc2c(F)ccc(NS(=O)(=O)CCCF)c2F)ccc2ncn(C)c(=O)c12 [Example 56, N-(3-((3,5-dimethyl-4-oxo-3,4-dihydroquinazolin-6-yl)oxy)-2,4-difluorophenyl)-3-fluoropropane-1-sulfonamide]
